Test results published in patent US12138267B2, “Methods of treating respiratory depression modulated by a non-opioid agent” (Enalare Therapeutics Inc., priority 2021, dated 2024).

How the values were obtained:
clinical = conditions: for AUC(0-t): both, human, plasma, intravenous, propofol Mean AUClast
Description: A study is conducted for Compound A. The study is a 3-period, randomized, placebo-controlled, double-blind, crossover study in healthy subjects. The primary objective of the study was to determine the safety and tolerability of Compound A in healthy participants after low and high doses of Compound A under hypoxic and hypercapnic conditions in conjunction with low and high doses of propofol. Another primary objective of the study was to determine the ventilatory response of low and high doses of Compound A under hypoxic and hypercapnic conditions in conjunction with low and high doses of propofol. A secondary objective of the study was to determine the cardiovascular response of low and high doses of Compound A during hypoxic and hypercapnic conditions in conjunction with low and high doses of propofol. Another secondary objective of the study was to evaluate the ventilatory response after administration of Compound A and propofol, under different ventilatory conditions: hypoxia and hyperoxic exposure at normocapnia followed by the same sequence at hypercapnia. The study was conducted in conformance with Good Clinical Practice. The study was a randomized, double-blinded, placebo-controlled, three-way crossover study to assess the safety, tolerability, respiratory PD, and PK of Compound A in healthy male and female participants. Subjects were initially screened up to 6 weeks prior to randomization. Following successful initial medical screening, they were scheduled for the study and receive a randomization number. Subjects underwent 3 separate treatment periods. In each of these periods, low or high doses of Compound A or placebo were continuously perfused throughout for a period of 270 minutes. During each period, subjects received different intravenous propofol dosages or placebo in set order: placebo—propofol low dose—propofol high dose. Each treatment session of propofol or placebo is […]. During each propofol treatment session, different ventilatory conditions are applied, hypoxia and hypercapnia (FIG. 1). […] Each assessment period (i.e., “run”) consists of a hypoxia/hyperoxic exposure at normocapnia followed by one the same sequence at hypercapnia. […] The participants received the following treatments in random order during the dosing periods: • Placebo+placebo/propofol low/propofol high/ • Compound A low+placebo/propofol low/propofol high • Compound A high+placebo/propofol low/propofol high Subjects were admitted to study site on Day −1 for pre-dose activities and eligibility was reassessed and stayed overnight. On each dosing day (Day 1), subjects were transferred to a special unit at study site in the morning (or early afternoon) after a minimum 8 hour overnight fasting. After placement of the respiratory and cardiovascular monitoring/assessment devices including an arterial line, subjects assumed the semi-recumbent position and sufficient time was allowed for subjects to resume a normal breathing pattern. After completion of baseline evaluations, all measurements were performed as per the schedule of assessments. Upon completion of all measurements on the dosing day, subjects were monitored overnight and assessed the next morning (at least 12 hours post study treatments) prior to discharge (Day 2). Subjects were not immediately discharged in cases where prolonged care is required (e.g., due to adverse event, residual sedation etc.) and were treated as necessary. Duration of Treatment: Participation was approximately 10 weeks divided as follows: • Screening: Up to 42 days before first dosing • Treatment phase of approximately 21 days, including three treatment and study assessment periods of 3 days each with approximately 7 days (minimum of 3) between dosing days • Follow up 7 days after last dosing Healthy adult subjects were selected for the study.

healthy participants = conditions: propofol during placebo infusion
[1] = during infusion with Compound A high dose
[2] = during infusion with Compound A low dose

## CC(C)c1cccc(C(C)C)c1O [propofol]
clinical; [1]
  AUC(0-t): 6150 ± 1170 ng·h/mL
  propofol peak plasma concentration, mean (±SD): 2620.0 ± 1093.86 ng/mL
clinical; [2]
  AUC(0-t): 5750 ± 1180 ng·h/mL
  propofol peak plasma concentration, mean (±SD): 2534.2 ± 1192.34 ng/mL
clinical; during infusion with placebo
  AUC(0-t): 4600 ± 548 ng·h/mL
  propofol peak plasma concentration, mean (±SD): 1880.8 ± 265.45 ng/mL
clinical; in vivo
  Propofol plasma concentrations during infusion with Compound A compared to placebo infusion: tended to be higher during infusion with Compound A
clinical; propofol high dose infusion, target 1200 ng/mL
  Propofol plasma concentrations versus targeted concentration: exceeding those targeted
clinical; propofol high dose interval, range across treatments
  propofol Geometric mean Cav200-270 min: 1525.12 to 1862.45 ng/mL
clinical; propofol low dose interval, range across treatments
  propofol Geometric mean Cav115-185 min: 452.62 to 559.80 ng/mL
Healthy participants
  Effect of propofol on hypoxic sensitivity: decreased hypoxic sensitivity
